We go through 1 compound from patent US10519132B2, “Isocorydine derivatives, preparation method and use thereof” (Lanzhou Institute of Chemical Physics, Chinese Academy of …, priority 2017, dated 2019).

A word on the IC50: it is the midpoint of a concentration-inhibition curve. Low readings indicate greater potency, high ones weaker potency.

The structures appear in SMILES notation. ≈ marks a conversion by molar mass, not a printed value.

The test system of one data set is Vimentin. The data set can be described thus: Western blotting, Vimentin expression in HepG2 cells. To be noted: FICD experiment (FIG. 12). In kind it is cell-based, human. Here is the method: Method: Gel electrophoresis of protein samples. Gel formulation: All components were added to a small beaker according to a formulation of a separation gel, uniformly mixed with slightly shaking to prevent the generation of bubbles, quickly applied to a seam of a glass plate with a 1 mL pipette, and then blocked with double distilled water to prevent oxidation. After 30 min, the separation gel solidified, the double distilled water thereof was poured off, waster was suctioned with a filter paper, a 5% concentration gel was formulated, TEMED was finally loaded onto the glass plate, and a 1.0 mm comb was inserted into the concentration gel and placed at room temperature for 30 min. The comb was slightly, vertically, and carefully pulled up, various groups of 20 μL protein samples were pipetted with a microsyringe, an equal volume of a loading buffer and an equal volume of a loading buffer containing 3 μL of Marker were separately added to a loading well, an electrophoresis instrument was switched on after electrodes were plugged, gels were run at 75V for 30 min, and the voltage was changed to 120V and gels were run for 2 h when bromophenol blue reaches the separation gel. Membrane transfer: A PVDF membrane having a suitable size was cut according to the size of the gel, placed in a methanol solution for 1 min, lifted, and placed and soaked together with a well cut filter paper in a previously precooled membrane transfer buffer. A sponge pad, three layers of filter paper, a gel, three layers of filter paper, and a sponge pad, in this order from top to bottom, were placed in a membrane transfer tank, and a precooled membrane transfer buffer was then added. Several ice bags were placed circumferentially to prevent an excessively hot external environment, and electrodes were plugged and membrane transfer was performed at a constant current of […] for 2.5 hours. Blocking and incubation of antibodies: A transferred membrane was cut into desired bands, which were placed in a blocking solution of 5% skim milk powder, placed on a shaker, and shaken at room temperature at a low speed for 1 h. A primary antibody was diluted with the blocking solution, a corresponding antibody was pipetted and added to a zip lock bag, the PVDF membrane was then placed in the antibody dilution, bubbles in the zip lock bag were evacuated, and the zip lock bag was sealed and placed in a refrigerator at 4° C. overnight. The membrane was withdrawn from the zip lock bag on the second day, and placed in a clean dish. A TBST solution was added and washed 3 times on a low-speed shaker, 10 min for each time. […]

Data set [1] relates to human breast cancer cell strain MAD-MB-231. The data set can be described thus: MTT growth inhibition on MAD-MB-231. In kind it is cell-based. To be noted: MDA-MB-231, after 48 h of action.
Method: By using an MTT method, a sample solution to be tested was added to a 96-well plate in which cancer cells were adherently grown. Culturing was performed for a certain period, and the growth inhibition effect of a compound on a human cancer cell strain for primary screening was measured to determine the anti-cancer activity of the compound.
Cell culture: A cell incubator was set to conditions of 37° C., 5% CO2, and a saturated humidity, cells were cultured under these conditions, and the cell medium was a DMEM complete medium, wherein 10% fetal bovine serum, 100 IU/mL penicillin, and 100 μg/mL streptomycin were comprised.
The single cell suspension was diluted to 5×10^3/100 μL after counting, inoculated on a 96-well cell culture plate (triplicate), and adherently cultured overnight; […]
The culture liquid was discarded, 100 μL of DMSO was added, low-speed oscillation was performed for 10 min by placing on a shaker, and the spectrophotometric value of each well was measured at a wavelength of 490 nm by using a microplate reader. Statistical analysis was performed and tumor cell growth inhibition rate was calculated according to the equation: Growth inhibition rate=(OD value of control group−OD value of experimental group)/OD value of control group.
Data set [2] has as its system ascites hepatoma H22 induced solid tumor. As to the kind of experiment: In vivo tumor growth inhibition in mice bearing H22. More on the design: species or system white Kunming mice. To be noted: for Tumor inhibition rate (%): Table 5.
For data set [3] the test system is unchanged. The description is as above. More on the design: species or system white Kunming mice. The following applies: Table 4, intraperitoneal, 10 d. From the text:
1. Tumor strain and animal for experiments: H22 liver cancer cell strain was provided by Teaching and Research Office, School of Basic Medical Sciences, Lanzhou University/Key Lab of Preclinical Study for New Drugs of Gansu Province, and was passage and preserved by periodically intraperitoneal inoculation. White Kunming mice (18.0-22.0 g) were provided by Lanzhou Veterinary Institute, Chinese Academy of Agriculture.
2. Establishment of tumor models and method of grouping: a third passage of mice which were well grown 7 d after intraperitoneal inoculation of H22 tumor cells were sacrificed by cervical dislocation, and placed and soaked in 75% alcohol for 10 min. After 3 mL of sterile physiological saline was intraperitoneally injected, milky tumor cell ascites was withdrawn from the abdominal cavity, and formulated into a tumor cell suspension with sterile physiological saline, with a cell number of 1.5×10^7 mL^−1. 80 white Kunming mice were taken, and 0.2 mL of the tumor cell suspension was subcutaneously inoculated to the left axilla of each mouse. 24 h after the inoculation of tumor cells, the mice were divided into 8 groups according to body weights, 10 mice for each group. […] All of the administration manners were intraperitoneal administration.
3. Result of experiments: On the second day of modeling, continuous administration was performed for 10 d. Administration was stopped on the 11th d, and mice were sacrificed by cervical dislocation on the next day.
(§1) Test method: For the test method, see Example 24. Results can be seen in FIG. 15, FIG. 16, and Table 5.
Method: Modeling was performed by using the method of establishing H22 white mice tumor-bearing model of Example 24. The in vivo tumor growth inhibition activity of COM33 on H22 model mice was measured in an intraperitoneal injection administration manner.

In a further data set the test system is HepG2 cells. The data set can be described thus: Apoptosis induction by laser confocal scanning microscope. In kind it is cell-based, human. The following applies: HepG2, 48 h. Here is the method:
Two solutions (a former one and a later one) were mixed, centrifugation was performed at 1000 r/min for 5 min, the supernatant was discarded, and washing was performed for 3 times with PBS. The cell precipitate was resuspended in Binding Buffer, 10 μL of a FITC-Annen V staining liquid was added, homogenized by pipetting slightly, and reaction was performed under protection from light. PI was added for staining for 15 min, centrifugation was performed, the supernatant was discarded, and washing was performed for 3 times again with PBS. A glass slide was loaded by applying the cell precipitate thereto and mounted with non-fluorescent buffering glycerol, a laser confocal scanning microscope was immediately used for observation and taking photographs at wavelengths of 488 nm and 560 nm. Meanwhile, cells without AnneixnV-FITC and PI added were used as a negative control.

Data set [4] can be described thus: In vivo absorption in mice, intragastric versus intraperitoneal administration. The arrangement: species or system white Kunming mice. To be noted: inferred from no statistical difference between administration manners.
Source text: The aim of this experiment was to investigate in vivo tumor growth inhibition effect of FICD on white Kunming mice bearing ascites hepatoma H22 induced solid tumor, discuss in vivo absorption of FICD in mice, and investigate the druggability and the selection of administration manners of FICD, among different administration manners (intragastric administration and intraperitoneal injection administration). The specific protocol of investigation was as follows:
as §1

Take `COc1cc(NC(=O)Nc2ccc(Cl)c(C(F)(F)F)c2)c2c(c1O)-c1c(OC)c(OC)cc3c1C(C2)N(C)CC3` (centres unmarked) [Compound 1]: in the data set on Vimentin, the Vimentin expression result was “significantly increased”. This compound showed an IC50 in data set [1] of 14.2 ± 0.66 µg/mL (≈ 24.6 µM). Besides, in data set [2] (Example 25, 150, 100 and 50 mg/Kg, intragastric or intraperitoneal injection), the “tumor inhibition rates for three administration dosages” value is at least 40%. Further, the “Tumor inhibition rate (%)” value in data set [2] (intragastric administration, high dosage 150 mg/Kg) came out at 53.4%; in data set [2] (intragastric administration, low dosage 50 mg/Kg), 40.1%; in data set [2] (intragastric administration, middle dosage 100 mg/Kg), 48.2%; in data set [2] (intraperitoneal injection, high dosage 150 mg/Kg), 53.0%; in data set [2] (intraperitoneal injection, low dosage 50 mg/Kg) it was 40.3%; in data set [2] (intraperitoneal injection, middle dosage 100 mg/Kg), 46.3%. The “Tumor inhibition rate (%)” value in data set [3] (high FICD dosage 150 mg/Kg) is recorded as 50.8%; in data set [3] (low FICD dosage 50 mg/Kg), 39.1%; in data set [3] (middle FICD dosage 100 mg/Kg) it was 45.6%. In addition, the “apoptosis and cell morphology, Anneixn V-FITC and PI double-staining” value in the data set on HepG2 cells was “apoptoses occurred during various phases”. Besides, the “in vivo absorption after oral administration” value in data set [4] is reported as “well absorbed”.
